In ChEMBL document CHEMBL4842364 (J Med Chem, 2021):
Values after ≈ are worked out from the molar mass of the structure shown.

Key:
[1] = AUC(0 to 24 hrs) in mouse at 60 mg/kg, po; type: ADME, organism-based; design: time < 24 hr, route oral, dose 60 mg/kg; conditions: in vivo
NCI-H23 = experiment: Antiproliferative activity against human NCI-H23 cells assessed as reduction in cell viability after 4 days by CellTiter-Glo assay; conditions: Homo sapiens, NCI-H23, 96 h
[2] = molecular target: T1, Mitogen-activated protein kinase kinase kinase 19 (Homo sapiens, UniProt Q56UN5); experiment: Inhibition of YSK4 (unknown origin)
T1 sequence (Q56UN5 whole entry): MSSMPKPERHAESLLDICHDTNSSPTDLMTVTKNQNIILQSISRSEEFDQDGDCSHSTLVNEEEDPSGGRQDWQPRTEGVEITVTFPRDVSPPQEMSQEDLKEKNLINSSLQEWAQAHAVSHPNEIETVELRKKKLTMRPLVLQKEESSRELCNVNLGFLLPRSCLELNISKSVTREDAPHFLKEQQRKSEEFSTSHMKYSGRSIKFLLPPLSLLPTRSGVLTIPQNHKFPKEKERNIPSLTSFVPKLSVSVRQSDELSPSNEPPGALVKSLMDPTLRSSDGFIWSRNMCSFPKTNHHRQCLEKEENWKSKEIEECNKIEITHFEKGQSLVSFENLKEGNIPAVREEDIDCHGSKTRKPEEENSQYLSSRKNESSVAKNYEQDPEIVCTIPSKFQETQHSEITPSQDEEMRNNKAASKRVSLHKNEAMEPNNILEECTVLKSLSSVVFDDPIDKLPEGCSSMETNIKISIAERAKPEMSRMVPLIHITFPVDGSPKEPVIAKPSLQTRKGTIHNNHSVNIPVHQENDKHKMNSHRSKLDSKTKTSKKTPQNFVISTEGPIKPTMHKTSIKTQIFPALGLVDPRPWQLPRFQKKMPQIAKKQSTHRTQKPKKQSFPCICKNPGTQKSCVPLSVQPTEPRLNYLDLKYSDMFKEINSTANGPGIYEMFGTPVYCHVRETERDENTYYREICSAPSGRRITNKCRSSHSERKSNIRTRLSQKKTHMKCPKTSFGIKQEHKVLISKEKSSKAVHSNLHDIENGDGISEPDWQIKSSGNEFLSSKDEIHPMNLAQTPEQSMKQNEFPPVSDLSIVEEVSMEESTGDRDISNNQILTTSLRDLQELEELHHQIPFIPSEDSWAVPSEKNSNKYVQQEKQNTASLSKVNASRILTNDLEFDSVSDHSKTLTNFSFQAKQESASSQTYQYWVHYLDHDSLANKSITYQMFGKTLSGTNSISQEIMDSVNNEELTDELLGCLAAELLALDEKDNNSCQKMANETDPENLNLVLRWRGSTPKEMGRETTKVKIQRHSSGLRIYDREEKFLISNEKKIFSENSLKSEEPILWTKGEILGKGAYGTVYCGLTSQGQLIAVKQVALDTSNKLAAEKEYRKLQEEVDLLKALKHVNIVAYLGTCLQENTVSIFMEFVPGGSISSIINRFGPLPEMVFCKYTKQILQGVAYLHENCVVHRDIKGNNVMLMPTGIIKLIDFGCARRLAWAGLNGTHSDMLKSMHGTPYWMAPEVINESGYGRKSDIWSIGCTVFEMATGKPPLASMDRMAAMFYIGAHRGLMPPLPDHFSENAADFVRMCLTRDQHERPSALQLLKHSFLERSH

[3] = test system: Epidermal growth factor receptor (Homo sapiens), P00533 [UNDEFINED MUTATION]; experiment: Inhibition of EGFR d747-749/A750P mutant (unknown origin) at 1 uM relative to control
Sequence of Epidermal growth factor receptor (Homo sapiens), P00533 [UNDEFINED MUTATION] (P00533 whole entry, looked up, stated change not applied): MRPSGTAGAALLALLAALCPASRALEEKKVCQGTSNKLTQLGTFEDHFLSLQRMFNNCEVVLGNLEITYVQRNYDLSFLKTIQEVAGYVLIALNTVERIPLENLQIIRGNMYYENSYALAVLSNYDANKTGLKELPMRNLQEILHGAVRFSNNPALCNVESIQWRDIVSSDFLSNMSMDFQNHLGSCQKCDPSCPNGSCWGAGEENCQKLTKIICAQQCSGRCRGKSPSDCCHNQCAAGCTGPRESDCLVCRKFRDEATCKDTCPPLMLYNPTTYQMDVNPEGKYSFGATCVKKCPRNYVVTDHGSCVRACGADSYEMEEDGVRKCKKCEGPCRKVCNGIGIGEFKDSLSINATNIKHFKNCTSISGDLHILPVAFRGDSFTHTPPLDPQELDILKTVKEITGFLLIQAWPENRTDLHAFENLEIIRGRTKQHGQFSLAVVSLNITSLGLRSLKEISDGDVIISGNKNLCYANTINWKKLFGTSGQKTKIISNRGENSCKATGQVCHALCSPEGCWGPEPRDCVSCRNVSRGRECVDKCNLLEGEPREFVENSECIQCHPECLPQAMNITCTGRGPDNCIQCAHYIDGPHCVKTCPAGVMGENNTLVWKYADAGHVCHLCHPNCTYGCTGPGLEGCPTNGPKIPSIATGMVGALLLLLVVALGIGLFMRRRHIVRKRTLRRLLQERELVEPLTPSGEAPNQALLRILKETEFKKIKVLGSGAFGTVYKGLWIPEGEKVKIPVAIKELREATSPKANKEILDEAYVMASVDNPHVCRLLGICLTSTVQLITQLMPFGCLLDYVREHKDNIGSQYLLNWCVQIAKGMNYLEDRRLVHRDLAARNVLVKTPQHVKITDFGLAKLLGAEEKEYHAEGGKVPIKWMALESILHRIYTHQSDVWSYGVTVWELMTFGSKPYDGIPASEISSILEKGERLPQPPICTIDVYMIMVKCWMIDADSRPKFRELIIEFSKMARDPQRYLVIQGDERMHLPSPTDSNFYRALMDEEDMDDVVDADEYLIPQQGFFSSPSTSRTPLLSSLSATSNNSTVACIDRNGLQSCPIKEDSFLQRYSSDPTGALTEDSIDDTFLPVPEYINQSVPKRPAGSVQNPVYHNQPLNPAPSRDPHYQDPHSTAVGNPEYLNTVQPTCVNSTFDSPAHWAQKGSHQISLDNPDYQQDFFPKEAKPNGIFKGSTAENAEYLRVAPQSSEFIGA

[4] = molecular target: Serine/threonine-protein kinase PLK3 (Homo sapiens, UniProt Q9H4B4); experiment: Inhibition of PLK3 (unknown origin)
Sequence of Serine/threonine-protein kinase PLK3 (Q9H4B4 whole entry): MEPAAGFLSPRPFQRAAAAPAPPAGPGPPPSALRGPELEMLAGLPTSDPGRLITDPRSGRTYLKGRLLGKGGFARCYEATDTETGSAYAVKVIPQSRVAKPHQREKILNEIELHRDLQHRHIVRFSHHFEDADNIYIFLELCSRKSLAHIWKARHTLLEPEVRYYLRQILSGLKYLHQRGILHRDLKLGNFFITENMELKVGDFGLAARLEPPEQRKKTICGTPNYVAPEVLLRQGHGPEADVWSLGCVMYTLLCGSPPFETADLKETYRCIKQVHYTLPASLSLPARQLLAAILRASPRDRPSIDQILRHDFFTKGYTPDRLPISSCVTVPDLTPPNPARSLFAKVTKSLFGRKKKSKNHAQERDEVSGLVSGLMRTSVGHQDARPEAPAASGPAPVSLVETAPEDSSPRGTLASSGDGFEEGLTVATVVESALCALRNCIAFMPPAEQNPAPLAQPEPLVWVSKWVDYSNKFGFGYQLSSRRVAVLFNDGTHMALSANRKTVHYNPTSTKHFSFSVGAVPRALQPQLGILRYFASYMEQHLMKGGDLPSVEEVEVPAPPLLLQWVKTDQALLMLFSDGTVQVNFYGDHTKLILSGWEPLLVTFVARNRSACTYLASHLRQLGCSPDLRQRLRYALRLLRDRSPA

[5] = molecular target: Epidermal growth factor receptor (Homo sapiens, UniProt P00533, 747-749DEL/A750P); experiment: Inhibition of EGFR d747-749/A750P mutant (unknown origin)
Sequence of Epidermal growth factor receptor (P00533 whole entry, looked up, stated change not applied): as the sequence (P00533 whole entry, looked up, stated change not applied) above

[6] = molecular target: T2, Mitogen-activated protein kinase kinase kinase 19 (Homo sapiens) (UniProt Q56UN5); experiment: Inhibition of YSK4 (unknown origin) at 1 uM relative to control
T2 sequence (whole entry): T1 sequence (Q56UN5 whole entry)

[7] = Intrinsic clearance in human hepatocytes; type: ADME, cell-based, Hepatocyte; conditions: read-out: CLH
[8] = molecular target: T3, Mitogen-activated protein kinase kinase kinase 3 (Homo sapiens) (UniProt Q99759); experiment: Inhibition of MAP3K3 (unknown origin) at 1 uM relative to control
T3 sequence (whole entry): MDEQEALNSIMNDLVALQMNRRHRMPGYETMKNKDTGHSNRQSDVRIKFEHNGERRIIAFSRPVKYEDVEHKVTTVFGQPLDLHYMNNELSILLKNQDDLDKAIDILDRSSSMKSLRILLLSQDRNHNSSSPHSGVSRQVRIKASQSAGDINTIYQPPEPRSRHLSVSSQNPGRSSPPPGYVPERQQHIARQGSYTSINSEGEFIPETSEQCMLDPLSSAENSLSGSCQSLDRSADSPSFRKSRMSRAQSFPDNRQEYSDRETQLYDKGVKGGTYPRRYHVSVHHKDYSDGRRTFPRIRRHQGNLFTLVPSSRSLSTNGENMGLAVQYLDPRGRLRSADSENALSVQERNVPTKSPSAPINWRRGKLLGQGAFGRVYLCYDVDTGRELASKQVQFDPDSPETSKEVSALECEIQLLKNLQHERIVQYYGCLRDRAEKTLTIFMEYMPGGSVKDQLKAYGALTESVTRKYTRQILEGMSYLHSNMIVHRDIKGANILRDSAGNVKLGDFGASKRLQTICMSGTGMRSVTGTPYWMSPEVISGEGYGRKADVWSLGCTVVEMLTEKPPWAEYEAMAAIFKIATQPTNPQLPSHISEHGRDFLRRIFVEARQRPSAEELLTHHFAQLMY

A-427 = experiment: Antiproliferative activity against human A-427 cells assessed as reduction in cell viability after 3 days by CellTiter-Glo assay; type: functional, cell-based; conditions: A-427, 72 h
[9] = AUC in mouse plasma at 80 mg/kg, po administered once daily for 28 days; type: ADME, organism-based; design: time 28 day, dose 80 mg/kg
[10] = molecular target: Serine/threonine-protein kinase PLK1 (Homo sapiens, UniProt P53350); experiment: Inhibition of PLK1 (unknown origin)
Sequence of Serine/threonine-protein kinase PLK1 (P53350 whole entry): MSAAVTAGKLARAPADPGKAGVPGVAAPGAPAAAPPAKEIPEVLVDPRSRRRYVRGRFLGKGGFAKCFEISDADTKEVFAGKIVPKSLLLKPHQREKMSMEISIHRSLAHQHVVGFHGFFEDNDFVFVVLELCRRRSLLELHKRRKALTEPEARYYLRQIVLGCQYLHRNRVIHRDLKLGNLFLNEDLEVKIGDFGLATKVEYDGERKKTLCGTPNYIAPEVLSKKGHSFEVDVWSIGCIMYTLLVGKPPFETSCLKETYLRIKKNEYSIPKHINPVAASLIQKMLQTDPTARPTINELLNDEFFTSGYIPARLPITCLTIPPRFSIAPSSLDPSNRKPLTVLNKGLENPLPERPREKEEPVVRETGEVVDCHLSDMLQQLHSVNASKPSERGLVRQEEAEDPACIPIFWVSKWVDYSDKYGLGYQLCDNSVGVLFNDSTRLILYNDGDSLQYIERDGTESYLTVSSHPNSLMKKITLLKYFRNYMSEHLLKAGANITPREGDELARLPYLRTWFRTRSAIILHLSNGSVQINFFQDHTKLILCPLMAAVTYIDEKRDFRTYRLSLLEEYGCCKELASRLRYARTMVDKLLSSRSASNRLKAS

[11] = Oral bioavailability in Beagle dog at 10 mg/kg measured upto 24 hrs by LC-MS/MS analysis; type: ADME, organism-based, Canis lupus familiaris; conditions: in vivo
[12] = molecular target: T4, Serine/threonine-protein kinase PLK2 (Homo sapiens, UniProt Q9NYY3); experiment: Inhibition of PLK2 (unknown origin) at 1 uM relative to control
Target sequence in this assay (Q9NYY3 whole entry, looked up): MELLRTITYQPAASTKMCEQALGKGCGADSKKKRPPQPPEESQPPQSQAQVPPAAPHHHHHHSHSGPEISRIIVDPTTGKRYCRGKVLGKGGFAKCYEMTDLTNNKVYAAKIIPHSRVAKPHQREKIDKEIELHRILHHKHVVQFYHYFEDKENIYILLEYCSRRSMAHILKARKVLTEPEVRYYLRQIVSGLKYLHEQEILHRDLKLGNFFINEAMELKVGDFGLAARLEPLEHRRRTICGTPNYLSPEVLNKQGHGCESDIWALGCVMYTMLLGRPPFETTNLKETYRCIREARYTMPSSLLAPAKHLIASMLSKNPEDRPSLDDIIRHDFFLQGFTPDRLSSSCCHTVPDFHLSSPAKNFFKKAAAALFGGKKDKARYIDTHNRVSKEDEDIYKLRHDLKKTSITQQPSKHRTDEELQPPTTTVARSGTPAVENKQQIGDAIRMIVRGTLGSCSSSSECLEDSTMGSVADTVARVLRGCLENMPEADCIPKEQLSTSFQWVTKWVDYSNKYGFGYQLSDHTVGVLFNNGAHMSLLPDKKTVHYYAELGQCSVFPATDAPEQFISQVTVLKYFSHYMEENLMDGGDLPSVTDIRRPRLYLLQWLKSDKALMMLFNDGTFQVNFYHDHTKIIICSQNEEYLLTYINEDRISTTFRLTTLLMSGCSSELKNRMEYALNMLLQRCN

[13] = AUC(0 to 24 hrs) in rat at 60 mg/kg, po; type: ADME, organism-based; design: time < 24 hr, route oral, dose 60 mg/kg; conditions: in vivo
[14] = Intrinsic clearance in human microsomes; type: ADME, Microsome
[15] = Half life in Beagle dog at 3 mg/kg, iv measured upto 24 hrs by LC-MS/MS analysis; type: ADME, organism-based, Canis lupus familiaris; conditions: in vivo
[16] = molecular target: T4, Serine/threonine-protein kinase PLK2; experiment: Inhibition of PLK2 (unknown origin)
Target sequence in this assay (Q9NYY3 whole entry): as the sequence (Q9NYY3 whole entry, looked up) above

[17] = Clearance in Beagle dog at 3 mg/kg, iv measured upto 24 hrs by LC-MS/MS analysis; type: ADME, organism-based, Canis lupus familiaris; conditions: in vivo
[18] = Thermodynamic solubility of compound; type: physicochemical; conditions: read-out: Therm_solubility
[19] = test system: Epidermal growth factor receptor (Homo sapiens), P00533 [UNDEFINED MUTATION]; experiment: Inhibition of EGFR d746-750 mutant (unknown origin) at 1 uM relative to control

AUC(0-t) at 24 h [1]: 32 µM·h
IC50 (NCI-H23): 103 nM
IC50 [2]: 59 nM
inhibition [3]: > 90%
IC50 [4]: 70 nM
IC50 [5]: 60 nM
inhibition [6]: > 90%
CLint scaled [7]: < 18 mL/min/kg
inhibition [8]: 75%
AUC at 672 h [9]: 45 µM·h
IC50 [10]: 227 nM
bioavailability [11]: 142%
inhibition [12]: > 90%
AUC(0-t) at 24 h [13]: 27 µM·h
CLint scaled [14]: 40 mL/min/kg
half-life [15]: 1.4 h
IC50 [16]: 40 nM
clearance [17]: 46 mL/min/kg
solubility thermodynamic [18]: 2130 µM (≈ 1120 µg/mL)
inhibition [19]: 75%
SMILES: C=CCn1c(=O)c2cnc(Nc3ccc(N4CCN(C)CC4)cc3)nc2n1-c1ccc2c(n1)C(O)(CC)CC2 (racemic)
IC50 (A-427): 75 nM
